Measurements published in patent publication US20250163051A1, “PYRIMIDO AROMATIC RING COMPOUND AND USE THEREOF IN DRUG” (SUNSHINE LAKE PHARMA CO., LTD., priority 2022, published 2025).
pEC50: −log10 of the molar value. Read-outs that look alike come from different tables or passages of the source.

Key:
hTLR7 = biological target: T1, hTLR7 (Homo sapiens, UniProt Q9NYK1); test: Agonistic activity on human TLR7 in HEK-Blue hTLR7 cells (QUANTI-Blue); format: cell-based; conditions: 24 h incubation, OD650, read-out: hTLR 7 EC50
T1 construct: expressed in transfected cells; host or cells: HEK-Blue hTLR7 cells
T1 sequence (Q9NYK1 27-1049): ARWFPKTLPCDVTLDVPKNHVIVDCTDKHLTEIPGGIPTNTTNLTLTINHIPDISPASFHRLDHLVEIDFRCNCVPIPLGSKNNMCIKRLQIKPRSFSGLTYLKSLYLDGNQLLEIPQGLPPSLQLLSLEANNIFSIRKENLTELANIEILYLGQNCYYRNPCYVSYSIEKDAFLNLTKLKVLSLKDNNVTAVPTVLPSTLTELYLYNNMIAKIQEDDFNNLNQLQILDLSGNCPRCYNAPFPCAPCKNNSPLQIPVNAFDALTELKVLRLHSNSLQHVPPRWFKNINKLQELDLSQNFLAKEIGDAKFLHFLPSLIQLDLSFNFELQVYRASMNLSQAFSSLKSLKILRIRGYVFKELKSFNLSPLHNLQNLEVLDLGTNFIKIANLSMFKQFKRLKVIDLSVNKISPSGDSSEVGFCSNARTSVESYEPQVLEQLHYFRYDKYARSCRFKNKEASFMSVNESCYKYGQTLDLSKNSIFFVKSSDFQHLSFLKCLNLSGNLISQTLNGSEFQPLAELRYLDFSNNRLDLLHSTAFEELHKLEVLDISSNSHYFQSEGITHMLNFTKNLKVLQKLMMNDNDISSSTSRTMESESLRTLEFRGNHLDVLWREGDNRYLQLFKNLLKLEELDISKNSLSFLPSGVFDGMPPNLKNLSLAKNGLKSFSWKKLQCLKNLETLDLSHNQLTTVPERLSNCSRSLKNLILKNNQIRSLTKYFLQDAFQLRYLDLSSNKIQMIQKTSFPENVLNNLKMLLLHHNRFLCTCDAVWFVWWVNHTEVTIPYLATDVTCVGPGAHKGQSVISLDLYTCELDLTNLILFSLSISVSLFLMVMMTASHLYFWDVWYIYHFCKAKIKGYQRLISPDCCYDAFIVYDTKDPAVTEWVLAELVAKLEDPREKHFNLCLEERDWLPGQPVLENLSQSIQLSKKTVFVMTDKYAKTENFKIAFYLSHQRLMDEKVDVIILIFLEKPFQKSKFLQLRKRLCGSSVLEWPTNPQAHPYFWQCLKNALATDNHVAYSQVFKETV
Protocol: (§2) Purpose: HEK-Blue™ hTLR7 and HEK-Blue™ hTLR8 cells were used to detect the agonist and cytotoxic activities of compounds against hTLR7 and hTLR8.
(§3) The experimental steps were as shown below: • 1) Preparation of compound: The compound was prepared into a 20 mM stock solution with DMSO, and then the stock solution was diluted 3-fold in a gradient and added to a 96-well plate, for a total of 10 concentrations, with duplicate wells for each concentration. For negative control wells, 0.5 μL DMSO was added to each well. The final DMSO concentration was 0.5%. • 2) HEK-Blue™ hTLR7 or HEK-Blue™ hTLR8 cells were suspended in culture medium and then seeded into 96-well plates containing compounds at a cell count of 50,000 per well. The compounds and cells were incubated for 24 h at 37° C., 5% Co2. • 3) QUANTI-Blue was used for the detection solution: to a mixture of 1 mL of QB reagent and 1 mL of QB buffer was added 98 mL of sterile water, the mixture was mixed and dissolved, and then placed at room temperature for 10 min. • 4) Activity test of the compound: 20 μL of the culture supernatant in step 2) was added to each well of a 96-well plate containing 180 μL of QUANTI-Blue detection solution. After incubation at 37° C. for 1 h, the absorbance at 650 nm (OD650) was detected using a multifunctional microplate reader Flextation III. • 5) Detection of cell activity: The chemiluminescent signal (RLU) was detected using the multifunctional microplate reader Flextation III according to the instructions of Celltiter-Glo. • 6) Data analysis
(§4) Activity of compounds: OD650 values were analyzed using GraphPad Prism software, and the compound dose-effect curves were fitted to calculate the EC50 values of the compounds.

CYP1A2 = biological target: T2, CYP1A2 (Homo sapiens, UniProt P05177); test: Inhibition of human liver microsomal CYP1A2; format: in vitro ADME; conditions: human liver microsomes, 10 μM test substance; read-out: Relative inhibition rate (%) CYP1A2
T2 construct: from tissue; host or cells: human liver microsomes
T2 sequence (P05177 1-516): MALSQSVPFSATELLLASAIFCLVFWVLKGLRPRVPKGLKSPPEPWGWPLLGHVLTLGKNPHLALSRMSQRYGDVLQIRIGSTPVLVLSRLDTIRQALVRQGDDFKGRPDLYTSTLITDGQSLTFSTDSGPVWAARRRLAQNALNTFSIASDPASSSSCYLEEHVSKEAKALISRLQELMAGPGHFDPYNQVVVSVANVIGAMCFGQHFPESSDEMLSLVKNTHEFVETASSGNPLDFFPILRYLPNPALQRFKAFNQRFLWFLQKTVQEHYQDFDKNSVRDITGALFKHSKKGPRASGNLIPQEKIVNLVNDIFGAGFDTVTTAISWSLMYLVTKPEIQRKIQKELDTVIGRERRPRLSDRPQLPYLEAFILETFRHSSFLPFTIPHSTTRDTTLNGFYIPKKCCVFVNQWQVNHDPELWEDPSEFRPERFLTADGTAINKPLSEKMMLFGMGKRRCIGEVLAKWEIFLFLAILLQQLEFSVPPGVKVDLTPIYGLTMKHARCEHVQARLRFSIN
Protocol: (§1) Experimental purpose: The inhibitory effects of the test compounds on the major metabolizing enzymes CYP1A2, CYP2C19, CYP2D6 and CYP3A4 in microsomes were evaluated using the human liver microsomal system. Experimental method: The test substance was incubated with a suspension of human liver microsomes containing cytochrome P450 enzymes CYP1A2, CYP2C19, CYP2D6 and CYP3A4 at a concentration of 10 μM in the final incubation system. The known substrates were metabolized by the corresponding single enzymes to generate specific metabolites, and the metabolites were determined by UPLC-MS/MS method. The relative inhibition rate (%) was calculated by the percentage reduction of metabolite production by the test compound and solvent DMSO in the same time period. N is the concentration value of the probe substrate metabolite and it is assumed that the […] with or without inhibitor at 0 min is 0. N+inh is the metabolite concentration in the group with inhibitor, and Nveh is the metabolite concentration in the group without inhibitor. The results of the inhibition test of the compounds of the present invention on human liver microsomal CYP enzymes are shown in Table C.

CYP3A4 = biological target: T3, CYP3A4 (Homo sapiens, UniProt P08684); test: Inhibition of human liver microsomal CYP3A4; format: in vitro ADME; conditions: human liver microsomes, 10 μM test substance
T3 construct: from tissue; host or cells: human liver microsomes
Protocol: as §1

CYP2C19 = biological target: T4, CYP2C19 (Homo sapiens, UniProt P33261); test: Inhibition of human liver microsomal CYP2C19; format: in vitro ADME; conditions: human liver microsomes, 10 μM test substance; read-out: Relative inhibition rate (%) CYP2C19
T4 construct: from tissue; host or cells: human liver microsomes
Protocol: as §1

hTLR8 = biological target: T5, hTLR8 (Homo sapiens, UniProt Q9NR97); test: Agonistic activity on human TLR8 in HEK-Blue hTLR8 cells (QUANTI-Blue); format: cell-based; conditions: 24 h incubation, OD650, read-out: hTLR 8 EC50
T5 construct: expressed in transfected cells; host or cells: HEK-Blue hTLR8 cells
T5 sequence (Q9NR97 27-1041): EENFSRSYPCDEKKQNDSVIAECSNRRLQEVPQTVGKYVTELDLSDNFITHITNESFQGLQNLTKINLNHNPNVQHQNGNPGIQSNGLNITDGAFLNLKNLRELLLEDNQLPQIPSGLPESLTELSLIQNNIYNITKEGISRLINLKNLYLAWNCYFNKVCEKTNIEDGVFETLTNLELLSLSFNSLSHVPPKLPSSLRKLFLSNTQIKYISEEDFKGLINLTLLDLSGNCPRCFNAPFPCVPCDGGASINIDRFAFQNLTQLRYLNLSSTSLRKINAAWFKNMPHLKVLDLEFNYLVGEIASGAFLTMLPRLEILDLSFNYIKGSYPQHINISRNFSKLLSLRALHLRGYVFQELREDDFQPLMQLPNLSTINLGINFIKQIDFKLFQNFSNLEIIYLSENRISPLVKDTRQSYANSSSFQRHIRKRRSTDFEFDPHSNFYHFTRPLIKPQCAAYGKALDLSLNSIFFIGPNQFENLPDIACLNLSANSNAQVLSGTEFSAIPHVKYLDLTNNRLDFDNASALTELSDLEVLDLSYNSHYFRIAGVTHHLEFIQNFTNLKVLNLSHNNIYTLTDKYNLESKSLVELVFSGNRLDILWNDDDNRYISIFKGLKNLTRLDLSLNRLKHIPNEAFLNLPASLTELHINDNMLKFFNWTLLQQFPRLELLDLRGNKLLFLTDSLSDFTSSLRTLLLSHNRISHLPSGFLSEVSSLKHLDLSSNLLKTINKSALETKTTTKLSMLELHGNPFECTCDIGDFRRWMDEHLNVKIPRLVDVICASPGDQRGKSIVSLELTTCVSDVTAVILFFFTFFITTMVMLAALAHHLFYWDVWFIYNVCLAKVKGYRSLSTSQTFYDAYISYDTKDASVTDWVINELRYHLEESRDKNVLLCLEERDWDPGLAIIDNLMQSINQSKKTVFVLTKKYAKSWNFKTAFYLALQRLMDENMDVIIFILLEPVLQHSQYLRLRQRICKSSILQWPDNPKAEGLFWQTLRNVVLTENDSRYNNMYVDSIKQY
Protocol: as §2, §3, §4

CYP2D6 = biological target: T6, CYP2D6 (Homo sapiens, UniProt P10635); test: Inhibition of human liver microsomal CYP2D6; format: in vitro ADME; conditions: human liver microsomes, 10 μM test substance; read-out: Relative inhibition rate (%) CYP2D6
T6 construct: from tissue; host or cells: human liver microsomes
Protocol: as §1

[1] = Cell toxicity (Celltiter-Glo) in HEK-Blue hTLR8 cells; conditions: human
Protocol: as §2, §3
Detection of cell activity: The calculation formula for cell activity % is as follows.
The cell activity % values were analyzed using GraphPad Prism software, and the compound dose-effect curves were fitted to calculate the CC50 values of the compounds.
Cell activity %=RLU compound/RLU DMSO Control*100%

[2] = probe Midazolam, substrate Midazolam, read-out: Relative inhibition rate (%) CYP3A4 (Midazolam)
[3] = probe Testosterone, substrate Testosterone, read-out: Relative inhibition rate (%) CYP3A4 (Testosterone)

T4 sequence (P33261 whole entry): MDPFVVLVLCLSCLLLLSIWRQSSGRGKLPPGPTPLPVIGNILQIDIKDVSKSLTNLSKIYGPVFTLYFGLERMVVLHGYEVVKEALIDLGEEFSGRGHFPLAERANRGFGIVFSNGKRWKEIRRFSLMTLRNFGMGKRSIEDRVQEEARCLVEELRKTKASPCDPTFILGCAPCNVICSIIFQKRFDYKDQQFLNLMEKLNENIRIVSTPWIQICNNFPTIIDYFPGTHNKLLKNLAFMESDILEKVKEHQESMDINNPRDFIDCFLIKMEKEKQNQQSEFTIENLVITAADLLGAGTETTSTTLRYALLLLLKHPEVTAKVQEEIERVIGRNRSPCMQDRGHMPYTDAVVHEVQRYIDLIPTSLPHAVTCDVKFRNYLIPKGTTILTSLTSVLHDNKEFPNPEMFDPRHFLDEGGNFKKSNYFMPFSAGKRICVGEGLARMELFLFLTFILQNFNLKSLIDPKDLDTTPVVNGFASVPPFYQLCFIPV
T3 sequence (P08684 whole entry): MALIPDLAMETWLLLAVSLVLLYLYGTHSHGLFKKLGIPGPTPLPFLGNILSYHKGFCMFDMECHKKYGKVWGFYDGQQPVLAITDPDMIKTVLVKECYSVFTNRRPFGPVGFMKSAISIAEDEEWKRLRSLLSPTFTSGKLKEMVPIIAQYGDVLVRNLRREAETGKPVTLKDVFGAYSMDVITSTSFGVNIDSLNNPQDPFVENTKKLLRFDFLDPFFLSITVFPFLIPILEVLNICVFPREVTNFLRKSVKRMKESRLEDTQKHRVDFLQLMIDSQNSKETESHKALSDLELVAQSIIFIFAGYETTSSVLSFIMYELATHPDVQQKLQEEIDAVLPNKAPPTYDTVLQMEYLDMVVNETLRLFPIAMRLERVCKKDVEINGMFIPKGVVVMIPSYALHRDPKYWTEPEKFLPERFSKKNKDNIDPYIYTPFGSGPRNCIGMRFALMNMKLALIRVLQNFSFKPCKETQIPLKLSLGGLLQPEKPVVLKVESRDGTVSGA
T6 sequence (P10635 whole entry): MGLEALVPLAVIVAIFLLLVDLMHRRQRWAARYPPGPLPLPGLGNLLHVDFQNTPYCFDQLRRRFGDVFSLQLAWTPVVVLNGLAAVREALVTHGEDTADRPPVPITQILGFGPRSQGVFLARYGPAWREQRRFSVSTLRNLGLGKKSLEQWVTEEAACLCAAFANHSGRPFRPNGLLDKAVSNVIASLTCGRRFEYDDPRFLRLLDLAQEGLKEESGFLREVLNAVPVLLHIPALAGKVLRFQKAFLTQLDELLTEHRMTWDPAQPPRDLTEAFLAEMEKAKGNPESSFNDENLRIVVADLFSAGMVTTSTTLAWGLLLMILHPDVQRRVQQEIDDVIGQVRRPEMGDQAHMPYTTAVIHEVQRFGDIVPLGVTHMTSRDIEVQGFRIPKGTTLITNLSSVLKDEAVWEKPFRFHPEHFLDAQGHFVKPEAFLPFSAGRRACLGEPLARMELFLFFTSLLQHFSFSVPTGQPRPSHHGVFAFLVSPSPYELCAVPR

SMILES	pEC50 (hTLR7)	inhibition at 10 µM (CYP1A2) [%]	inhibition at 10 µM (CYP3A4; [2]) [%]	inhibition at 10 µM (CYP3A4; [3]) [%]	inhibition at 10 µM (CYP2C19) [%]	pEC50 (hTLR8)	inhibition at 10 µM (CYP2D6) [%]	CC50 at 24 h [1] [µM]
CCCC[C@](C)(CO)Nc1nc(N)nc2cc(-c3cc(=O)[nH]cc3CN(C)C)cnc12 [Example 50, (R)-4-(2-Amino-4-((1-hydroxy-2-methylhexan-2-yl)amino)pyrido[3,2-d]pyrimidin-7-yl)-5-((dimethylamino)methyl)pyridin-2(1H)-one]	< 4.00	10.7	13.7	11.6	11.4	7.80	9.7	> 100
CCCCN(C)Cc1c[nH]c(=O)cc1-c1ccc2c(N[C@@](C)(CO)CCCC)nc(N)nc2c1 [Example 36, (R)-4-(2-Amino-4-((1-hydroxy-2-methylhexan-2-yl)amino)quinazolin-7-yl)-5-((butyl(methyl)amino)methyl)pyridin-2(1H)-one]	< 4.00	9	25.9	7.5	7	7.18	20.1	> 100
CCCC[C@](C)(CO)Nc1nc(N)nc2cc(-c3cc(=O)[nH]cc3CN(C)CCOC)ccc12 [Example 54, (R)-4-(2-Amino-4-((1-hydroxy-2-methylhexan-2-yl)amino)quinazolin-7-yl)-5-(((2-methoxyethyl)(methyl)amino)methyl)pyridin-2(1H)-one]	< 4.00	7.9	22.5	8.9	0.8	6.97	12.5	> 100
CCCCN(C)Cc1cn(C)c(=O)cc1-c1ccc2c(N[C@@](C)(CO)CCCC)nc(N)nc2c1 [Example 56, (R)-4-(2-Amino-4-((1-hydroxy-2-methylhexan-2-yl)amino)quinazolin-7-yl)-5-((butyl(methyl)amino)methyl)-1-methylpyridin-2(1H)-one]	4.95	10.7	33.6	15.6	10.4	7.60	31.7	–
CCCC[C@](C)(CO)Nc1nc(N)nc2cc(-c3cc(=O)n(C)cc3CN(C)CCOC)ccc12 [Example 55, (R)-4-(2-Amino-4-((1-hydroxy-2-methylhexan-2-yl)amino)quinazolin-7-yl)-5-(((2-methoxyethyl)(methyl)amino)methyl)-1-methylpyridin-2(1H)-one]	< 4.00	9.1	38.6	17.1	17	7.41	19.1	> 100
CCCC[C@](C)(CO)Nc1nc(N)nc2cc(-c3cc(=O)[nH]cc3COC)cnc12 [Example 51, (R)-4-(2-Amino-4-((1-hydroxy-2-methylhexan-2-yl)amino)pyrido[3,2-d]pyrimidin-7-yl)-5-(methoxymethyl)pyridin-2(1H)-one]	< 4.00	11.1	7.4	34.1	22.1	7.92	9.6	> 100
CCCC[C@](C)(CO)Nc1nc(N)nc2cc(-c3cc(=O)n(C)cc3CN(C)CCO)ccc12 [Example 64, (R)-4-(2-Amino-4-((1-hydroxy-2-methylhexan-2-yl)amino)quinazolin-7-yl)-5-(((2-hydroxyethyl)(methyl)amino)methyl)-1-methylpyridin-2(1H)-one]	< 4.00	8.9	17.6	8.8	2.4	7.11	13.8	> 100
